In patent EP3092214B1, “NITROSAMINE/NITRITE INHIBITION IN TERTIARY ALKYLAMINE OXIDE COMPOSITIONS” (EOC Surfactants N.V., priority 2014, dated 2015):
Like-named read-outs stand apart in the source and are kept apart here.

Experiments:
[1] = Synthesis tests of cocamidopropylamine oxide with candidate inhibitors: colour of the final product; format: physicochemical; conditions: additive 0,1% by weight on amido-amine
Experimental: (§1) To a three-neck flask of 1000 ml, demi-water and citric acid were added. The acid was added in order to keep the pH of the reaction mixture below 9. Subsequently, cocamidopropylamine and hydrogen peroxide were added. The reaction mixture was heated to a desired temperature of either 50 °C or 70 °C. Upon reaching the desired reaction temperature, sodium bicarbonate was added. The pH of the reaction mixture is maintained between 7,0 and 7,5. If necessary, NaOH is added.
(§2) In the examples described below, different additives were tested for their ability to inhibit the formation of nitrosamines. Each time, during the reaction, an amount of inhibitor was added which corresponds to 0,1% by weight of the amount of added amido-amine raw material.

[2] = for Content of nitrosamines: cocamidopropylamine oxide synthesis, additive 0,1% by weight on amido-amine; for inhibitory effect on the formation of nitrosamines: result in words, tertiary alkylamine oxide (cocamidopropylamine oxide) synthesis
Experimental: For the measurement, gas chromatography in combination with a thermal energy analyzer (GC-TEA) is used. In measurements using this technique, the so-called apparent total N-nitroso compounds (ATNC) are determined by a chemical denitrosation and detection of the released […] in µg/kg (ppb). This content is also determined by denitrosation of an N-nitrosodiisopropanolamine (NDiPLA) calibration standard.
as §1, §2
The nitrosamine content was determined with the aid of a chemical denitrosation technique and measurement with a thermal energy analyzer. The detection limit of the method used was 50 µg total content of N-nitroso compounds/kg.

Row | SMILES | Colour ([1]; Temp 50 °C) | Content of nitrosamines ([2]; Temp 50 °C) | Content of nitrosamines ([2]; Temp 70 °C) | inhibitory effect on the formation of nitrosamines [2] | Colour ([1]; Temp 70 °C)
1 | O=C(O)CN(CCN(CC(=O)O)CC(=O)O)CCN(CC(=O)O)CC(=O)O [DTPA Na, diethylene triamine pentaacetic acid] | 27 Apha |  |  |  | 
2 | O=P(O)(O)CN(CCN(CP(=O)(O)O)CP(=O)(O)O)CCN(CP(=O)(O)O)CP(=O)(O)O [DTPMP, diethylenetriamine penta(methylene phosphonic acid)] | 50 Apha | 1637 ppb | 765 ppb | insufficiently able to inhibit the formation of nitrosamines | 24 Apha
3 | O=C(O)CN(CCN(CC(=O)O)CC(=O)O)CC(=O)O [EDTA, ethylenediaminetetraacetic acid] | 27 Apha | 660 ppb | 1550 ppb | insufficiently able to inhibit the formation of nitrosamines | 37 Apha
